Test results from US8968758B2, “Material for forming a multi-level antimicrobial surface coating and its preparation” (The Hong Kong University of Science and Technology …, priority 2008, dated 2015).

Legend:
[1] = tested on: Gram positive and Gram negative bacteria; assay: Contact-killing on surface coated with composition B at various contact times; assay type: cell-based, B. subtilis, S. aureus, E. coli; conditions: 10 min contact, without encapsulation
Protocol: A hundred microliters of 10^7.cm^−3 bacteria cell suspension was placed in contact with the coated surface at ambient condition (23±2° C., 70% R.H.) in a sterilized biological safety cabinet (NuAire, Nu-425-400E). Three sets of runs of five samples each were carried out at the fixed contact times of 1, 5, 10 and 30 min. The samples were immersed into a primary subculture tube containing 20 ml neutralizer for 30 min to stabilize the surviving bacteria cells. The sterile neutralizer solution was freshly prepared by adding 1% (v/v) 0.1 M Na2S2O3 to 600 ml of 0.85% (w/v) normal saline (NaCl, RDH) solution containing 0.1% (v/v) (final concentration) of polyoxyethylenesorbitan monooleate (Tween 80) followed by autoclave at 121° C. for 20 min. A hundred microliters aliquots from the neutralizer were cultured on a TSA plate. The numbers of viable bacteria were counted after incubating the plates for 24 h at 37±0.1° C. The sample was drip-dried and transferred to a second subculture tube containing 20 ml of sterile nutrient broth (Nutrient broth no. 2, Oxoid) for 10 min. A hundred microliters aliquots from the nutrient broth were cultured on a TSA plate. The numbers of viable bacteria were counted after incubating the plates for 24 h at 37±0.1° C.

[2] = tested on: S. aureus; assay: Kirby-Bauer disk diffusion test; assay type: cell-based; conditions: wafer coated and dried
Protocol: Standard Kirby-Bauer disk diffusion test was performed using S. aureus. Sterile TSA plates were evenly inoculated with a loopful (ca. 100 μl) of S. aureus inoculum from the broth culture (ca. 10^6.cm^−3). […] A filter paper coated with 100 μl of 70% ethanol without drying was used as positive control
The Kirby-Bauer disk diffusion test was conducted, a standard antimicrobial test method using impregnated wafers to test whether particular bacteria are susceptible by comparing the area of clearing that surrounds the wafer where bacteria are not capable of growing (called a zone of inhibition).

Row | Compound | antimicrobial effect (in words) [1] | zone of inhibition [2]
1 | [O][Cl+][O-] [chlorine dioxide] | ineffective | 
2 | ethanol [70% alcohol] |  | do not show zones of inhibition
